# Activity calls are given as the source filed them.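 The calls were made as follows: active = 40% activation versus positive control reached by fitted dose-response curve at or below highest valid tested dose; inconclusive = poor fit quality, or flat fit with activation between 30% and 70%; inactive = the rest.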
# Assay: inactive X chromosome reactivation in XiGFP fibroblasts, dose response, imaging, 68-5-11 mouse fibroblasts, GFP, cherry-pick (AID 743394);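 also: sensitizer 5-aza-dC present in the wells at 0.5 mM final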
# Settings: 68-5-11 mouse fibroblast XiGFP reporter, % GFP-positive imaging, 3 d; at 19.5 µM (top of the series)
row,SMILES,activation
1,Cc1ccc2[nH]c(=S)n(-c3cccnc3)c(=O)c2c1,-0.035% (inactive)

# Same assay, conditions: 68-5-11 mouse fibroblast XiGFP reporter, % GFP-positive imaging, 3 d; at 19.5 µM (top of the series); cells co-treated with 5-aza-dC sensitizer; scaled: neutral wells 0, ellipticine wells 100
row,SMILES,activation
1,CCSc1nnc(NC(=O)c2cc(OC)c(OC)c(OC)c2)s1,0.316% (inactive)
2,CCCCCCCCN1C(=O)[C@H](CC(=O)N2CCSCC2)C[C@@]2(C(=O)OCC)CCCC=C12,0.117% (inactive)
3,Cc1cc(-c2nc(C)c(-c3nnc(SCC(=O)Nc4ccc(Cl)cc4)n3C)s2)no1,0.023% (inactive)
4,Cc1ccccc1NC(=O)c1cn2c(nc3ccccc32)c(C#N)c1C,3.72% (inactive)
5,O=C1c2ccccc2C(=Cc2cccnc2)c2ccccc21,0.325% (inactive)
6,C=CCNC(=O)N[C@@H](Cc1ccccc1)C(=O)OC,-0.065% (inactive)
7,CCOc1ccccc1N1C(=O)CC(Sc2nccc(C)n2)C1=O (stereo unspecified),-0.095% (inactive)
8,CCCn1c(SCC(=O)NCc2ccc(C)cc2)n[nH]c1=O,-0.121% (inactive)
9,CCN1CCN(c2cc3nc(C)n(Cc4ccccc4)c(=O)c3cc2NC(=O)c2ccccc2F)CC1,-0.127% (inactive)
10,CC(O)CN(CC(C)O)c1ccc2c(c1)Cc1cc([N+](=O)[O-])ccc1-2 (stereo unspecified),11.6% (inactive)
11,CCCNC(=O)N1CC2(CN(S(C)(=O)=O)C2)c2c(n(C)c3cc(OC)ccc23)[C@H]1CO,0.016% (inactive)
12,O=C(N/N=C\c1c(O)ccc2ccccc12)c1ccc(S(=O)(=O)N2CCCCC2)cc1,12.4% (inactive)
13,CC(C)OC(=O)CC(=O)CSc1nc(-c2ccc(F)cc2)cc(-c2ccccc2)c1C#N,0.769% (inactive)
14,C/C(=N\NC(=O)CC1N=C(Cc2ccccc2)NNC1=O)c1ccc(Br)cc1 (stereo unspecified),0.028% (inactive)
15,CCOC(=O)c1sc(Nc2ccc(Br)cc2)nc1C,0.082% (inactive)
16,COC(=O)c1cc(C(=O)N2CCN(c3ccccc3OC)CC2)cc([N+](=O)[O-])c1,0.681% (inactive)
17,Cc1cccc(NC(=O)Cn2cnc3c(oc4nc5c(cc43)COC(C)(C)C5)c2=O)c1,4.42% (inactive)
18,Cc1cccc(-c2ccc([C@@H]3[C@@H](CO)N4CCCCN(S(=O)(=O)c5ccccc5F)C[C@H]34)cc2)c1,0% (inactive)

row,SMILES,activation
1,COC(=O)C(C(C)C)N1CCc2c(C)nc3c(C#N)cnn3c21 (stereo unspecified),0.052% (inactive)
2,COCCCn1c(C)cc(C(=O)COC(=O)CCc2nc3ccccc3c(=O)[nH]2)c1C,0.39% (inactive)
3,COC(=O)Nc1ccc(S(=O)(=O)N2CCCC(C(=O)N3CCN(C)CC3)C2)cc1 (stereo unspecified),0.221% (inactive)
4,CC(C)N1CCc2c(sc(NC(=O)c3cc4cc([N+](=O)[O-])ccc4s3)c2C(N)=O)C1,7.43% (inactive)
5,O=c1[nH]cnc2c1ncn2[C@H]1CC[C@@H](CO)O1,-0.002% (inactive)
6,CN(Cc1nc(CCc2ccccc2)no1)Cc1cccs1,-0.037% (inactive)
7,CC1=Nc2ccccc2/C1=C\c1sc(Nc2ccc(C)cc2)nc1O,0.535% (inactive)
8,CC(C)C#Cc1ccc([C@@H]2[C@@H](CO)N3C(=O)CN(C(=O)c4ccc5c(c4)OCO5)C[C@H]23)cc1,0.09% (inactive)
9,COc1ccc2c3c([nH]c2c1)[C@H](CO)N(C(=O)c1cccnc1)CC31CCN(Cc2ccccc2)CC1,0.094% (inactive)
10,COCCNC(=S)N(Cc1cccnc1)Cc1ccc(OC)c(OC)c1,0.071% (inactive)
11,Cc1oc2ccc(NS(=O)(=O)c3cccc4cccnc34)cc2c1C(=O)OC(C)C,0.423% (inactive)
12,COc1ccc(-n2ncc(Cl)c(Cl)c2=O)cc1,-0.032% (inactive)
13,COc1ccc(N=Nc2ccc(O)c(P(=O)(c3ccccc3)c3ccccc3)c2)cc1,0.015% (inactive)
14,S=C(SSC(=S)N1CCOCC1)N1CCOCC1,-0.127% (inactive)
15,[N-]=[N+]=CC(=O)C(O)(c1ccccc1)C(Cl)c1ccccc1 (stereo unspecified),0.034% (inactive)
16,CN(C1CCCCC1)S(=O)(=O)c1ccc(C(=O)N2CCN(c3nc4ccccc4s3)CC2)cc1,0.125% (inactive)
17,Cc1ccccc1NC(=O)CN1C(=O)S/C(=C\c2ccc(-c3cc(C(=O)O)ccc3C)o2)C1=O,0.024% (inactive)

# Reference: PubChem BioAssay AID743394 (Broad Institute, 2014)
